Assay results as given in patent US20240417439A1, “RECOMBINANT POLYPEPTIDE FOR DISRUPTING INTERACTION OF EAG2 AND KVß2 AND THERAPEUTIC APPLICATIONS THEREOF IN CANCER TREATMENT” (The Hospital for Sick Children, priority 2021, published 2024).
Non-standard residues stand in square brackets, D forms with d. No end group written: not given here.

T1: EAG2, endogenous, mouse whole brain (mouse, UniProt Q920E3 1-988)
T1 sequence (looked up): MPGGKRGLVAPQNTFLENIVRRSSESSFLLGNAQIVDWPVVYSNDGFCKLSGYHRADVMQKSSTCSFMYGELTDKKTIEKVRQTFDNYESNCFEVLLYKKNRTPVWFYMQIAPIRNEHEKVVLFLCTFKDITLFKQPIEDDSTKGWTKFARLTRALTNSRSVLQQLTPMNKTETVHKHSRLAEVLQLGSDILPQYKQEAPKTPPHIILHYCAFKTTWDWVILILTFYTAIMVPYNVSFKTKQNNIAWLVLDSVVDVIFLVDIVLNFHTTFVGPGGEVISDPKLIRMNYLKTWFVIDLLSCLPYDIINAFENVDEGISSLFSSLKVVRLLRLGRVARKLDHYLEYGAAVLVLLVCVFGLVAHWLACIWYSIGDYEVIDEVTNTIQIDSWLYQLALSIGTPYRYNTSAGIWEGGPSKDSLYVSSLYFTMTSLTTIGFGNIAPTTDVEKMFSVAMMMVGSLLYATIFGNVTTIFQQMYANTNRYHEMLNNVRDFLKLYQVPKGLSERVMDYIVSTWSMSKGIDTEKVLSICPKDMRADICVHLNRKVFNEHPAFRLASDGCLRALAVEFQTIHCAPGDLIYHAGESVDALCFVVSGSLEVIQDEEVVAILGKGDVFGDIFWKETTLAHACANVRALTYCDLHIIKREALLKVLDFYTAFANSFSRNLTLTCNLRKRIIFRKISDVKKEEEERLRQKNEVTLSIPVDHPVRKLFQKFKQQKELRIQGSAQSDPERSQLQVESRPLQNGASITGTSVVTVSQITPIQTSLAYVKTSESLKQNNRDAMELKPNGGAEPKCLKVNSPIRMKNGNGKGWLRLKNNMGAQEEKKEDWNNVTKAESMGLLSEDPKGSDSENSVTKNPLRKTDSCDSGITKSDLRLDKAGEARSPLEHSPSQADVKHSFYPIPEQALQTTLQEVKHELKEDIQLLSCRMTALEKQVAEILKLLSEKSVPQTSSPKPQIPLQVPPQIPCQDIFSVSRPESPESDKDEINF

B1: Kvß2, endogenous, mouse whole brain (other, UniProt P62482 1-367, looked up)
chain: MYPESTTGSPARLSLRQTGSPGMIYSTRYGSPKRQLQFYRNLGKSGLRVSCLGLGTWVTFGGQITDEMAEHLMTLAYDNGINLFDTAEVYAAGKAEVVLGNIIKKKGWRRSSLVITTKIFWGGKAETERGLSRKHIIEGLKASLERLQLEYVDVVFANRPDPNTPMEETVRAMTHVINQGMAMYWGTSRWSSMEIMEAYSVARQFNLIPPICEQAEYHMFQREKVEVQLPELFHKIGVGAMTWSPLACGIVSGKYDSGIPPYSRASLKGYQWLKDKILSEEGRRQQAKLKELQAIAERLGCTLPQLAIAWCLRNEGVSSVLLGASNAEQLMENIGAIQVLPKLSSSIVHEIDSILGNKPYSKKDYRS

Legend:
GBM532 cells = assay: cell viability of GBM532 cells following peptide treatment; assay type: cell-based, human; conditions: increasing peptide concentrations
From the text: GBM532 cells were exposed to increasing concentrations of various peptide treatments. […] The peptide K59-78^TATwas used as a negative control.

[1] = target: T1, EAG2, endogenous, mouse whole brain; assay: co-IP from lysates of mouse whole brains

Row | Molecule | cell-killing activity (GBM532 cells) | binding result [1]
1 | Retro-inverso-DIP: D-amino acids in reverse order: VLSSRRWGKKKIINGLVVEAKGAAYSGSGSGQPRRRQRRKKRG ([dV][dL][dS][dS][dR][dR][dW]G[dK][dK][dK][dI][dI][dN]G[dL][dV][dV][dE][dA][dK]G[dA][dA][dY][dS]G[dS]G[dS]G[dQ][dP][dR][dR][dR][dQ][dR][dR][dK][dK][dR]G) | Good cell-killing activity | 
2 | B1 |  | no binding
